Test results taken from paper PMC5392334, “Discovery and characterization of a novel irreversible EGFR mutants selective and potent kinase inhibitor CHMFL-EGFR-26 with a distinct binding mode” (Oncotarget, 2017).
Read-outs that look alike come from different tables or passages of the source.

Key:
OSR1 = molecular target: T1, OSR1 (Homo sapiens, UniProt O95747); test: KinomeScan; format: binding; settings: read-out: % control
T1 construct: purchased DiscoveRx KINOMEscan

SBK1 = molecular target: T2, SBK1 (Homo sapiens, UniProt Q52WX2); test: KinomeScan; format: binding; settings: read-out: % control
T2 construct: purchased DiscoveRx KINOMEscan

EGFR(L858R) = molecular target: T3, EGFR(L858R) (Homo sapiens, UniProt P00533, L858R); test: KinomeScan; format: binding; settings: read-out: % control
T3 construct: purchased DiscoveRx KINOMEscan

[1] = Pharmacokinetic properties in rats; format: in vivo; settings: for MRT last: read-out: MRT(0-t)
Method: To further investigate the effect of CHMFL-EGFR-26 in vivo, we first examined its pharmacokinetic properties in rats (Supplementary Table 5). The half-life is 0.8 hour by oral dosing which is short but considering the irreversible binding mode, this short half-life was preferred. […]

BRSK2 = molecular target: T4, BRSK2 (Homo sapiens, UniProt Q8IWQ3); test: KinomeScan; format: binding; settings: read-out: % control
T4 construct: purchased DiscoveRx KINOMEscan

TIE1 = molecular target: T5, TIE1 (Homo sapiens, UniProt P35590); test: KinomeScan; format: binding; settings: read-out: % control
T5 construct: purchased DiscoveRx KINOMEscan

ERK2 = molecular target: T6, ERK2 (Homo sapiens, UniProt P28482); test: KinomeScan; format: binding; settings: read-out: % control
T6 construct: purchased DiscoveRx KINOMEscan

PIK3CA(Q546K) = molecular target: T7, PIK3CA(Q546K) (Homo sapiens, UniProt P42336, Q546K); test: KinomeScan; format: binding; settings: read-out: % control
T7 construct: purchased DiscoveRx KINOMEscan

MAP4K5 = molecular target: T8, MAP4K5 (Homo sapiens, UniProt Q9Y4K4); test: KinomeScan; format: binding; settings: read-out: % control
T8 construct: purchased DiscoveRx KINOMEscan

DAPK3 = molecular target: T9, DAPK3 (Homo sapiens, UniProt O43293); test: KinomeScan; format: binding; settings: read-out: % control
T9 construct: purchased DiscoveRx KINOMEscan

[2] = molecular target: T10, JAK2(JH1domain-catalytic) (Homo sapiens, UniProt O60674); test: KinomeScan; format: binding; settings: read-out: % control
T10 construct: JAK2(JH1domain-catalytic); purchased DiscoveRx KINOMEscan

SIK2 = molecular target: T11, SIK2 (Homo sapiens, UniProt Q9H0K1); test: KinomeScan; format: binding; settings: read-out: % control
T11 construct: purchased DiscoveRx KINOMEscan

CAMK4 = molecular target: T12, CAMK4 (Homo sapiens, UniProt Q16566); test: KinomeScan; format: binding; settings: read-out: % control
T12 construct: purchased DiscoveRx KINOMEscan

MEK6 = molecular target: T13, MEK6 (Homo sapiens, UniProt P52564); test: KinomeScan; format: binding; settings: read-out: % control
T13 construct: purchased DiscoveRx KINOMEscan

NEK1 = molecular target: T14, NEK1 (Homo sapiens, UniProt Q96PY6); test: KinomeScan; format: binding; settings: read-out: % control
T14 construct: purchased DiscoveRx KINOMEscan

LTK = molecular target: T15, LTK (Homo sapiens, UniProt P29376); test: KinomeScan; format: binding; settings: read-out: % control
T15 construct: purchased DiscoveRx KINOMEscan

KIT(A829P) = molecular target: T16, KIT(A829P) (Homo sapiens, UniProt P10721, A829P); test: KinomeScan; format: binding; settings: read-out: % control
T16 construct: purchased DiscoveRx KINOMEscan

ERK3 = molecular target: T17, ERK3 (Homo sapiens, UniProt Q16659); test: KinomeScan; format: binding; settings: read-out: % control
T17 construct: purchased DiscoveRx KINOMEscan

RIOK3 = molecular target: T18, RIOK3 (Homo sapiens, UniProt O14730); test: KinomeScan; format: binding; settings: read-out: % control
T18 construct: purchased DiscoveRx KINOMEscan

CIT = molecular target: T19, CIT (Homo sapiens, UniProt O14578); test: KinomeScan; format: binding; settings: read-out: % control
T19 construct: purchased DiscoveRx KINOMEscan

MTOR = molecular target: T20, MTOR (Homo sapiens, UniProt P42345); test: KinomeScan; format: binding; settings: read-out: % control
T20 construct: purchased DiscoveRx KINOMEscan

[3] = molecular target: T21, ABL1(Q252H)-phosphorylated (Homo sapiens, UniProt P00519, Q252H); test: KinomeScan; format: binding; settings: read-out: % control
T21 construct: purchased DiscoveRx KINOMEscan

WNK1 = molecular target: T22, WNK1 (Homo sapiens, UniProt Q9H4A3); test: KinomeScan; format: binding; settings: read-out: % control
T22 construct: purchased DiscoveRx KINOMEscan

MLK1 = molecular target: T23, MLK1 (Homo sapiens, UniProt P80192); test: KinomeScan; format: binding; settings: read-out: % control
T23 construct: purchased DiscoveRx KINOMEscan

GRK1 = molecular target: T24, GRK1 (Homo sapiens, UniProt Q15835); test: KinomeScan; format: binding; settings: read-out: % control
T24 construct: purchased DiscoveRx KINOMEscan

PFCDPK1(P.falciparum) = molecular target: T25, PFCDPK1(P.falciparum) (Plasmodium falciparum, UniProt P62344); test: KinomeScan; format: binding; settings: read-out: % control
T25 construct: purchased DiscoveRx KINOMEscan

ICK = molecular target: T26, ICK (Homo sapiens, UniProt Q9UPZ9); test: KinomeScan; format: binding; settings: read-out: % control
T26 construct: purchased DiscoveRx KINOMEscan

MAP4K3 = molecular target: T27, MAP4K3 (Homo sapiens, UniProt Q8IVH8); test: KinomeScan; format: binding; settings: read-out: % control
T27 construct: purchased DiscoveRx KINOMEscan

NEK9 = molecular target: T28, NEK9 (Homo sapiens, UniProt Q8TD19); test: KinomeScan; format: binding; settings: read-out: % control
T28 construct: purchased DiscoveRx KINOMEscan

TAOK3 = molecular target: T29, TAOK3 (Homo sapiens, UniProt Q9H2K8); test: KinomeScan; format: binding; settings: read-out: % control
T29 construct: purchased DiscoveRx KINOMEscan

MAP3K4 = molecular target: T30, MAP3K4 (Homo sapiens, UniProt Q9Y6R4); test: KinomeScan; format: binding; settings: read-out: % control
T30 construct: purchased DiscoveRx KINOMEscan

FYN = molecular target: T31, FYN (Homo sapiens, UniProt P06241); test: KinomeScan; format: binding; settings: read-out: % control
T31 construct: purchased DiscoveRx KINOMEscan

CDK4-cyclinD1 = molecular target: T32, CDK4-cyclinD1 (Homo sapiens, UniProt P11802); test: KinomeScan; format: binding; settings: read-out: % control
T32 construct: purchased DiscoveRx KINOMEscan

[4] = molecular target: T33, EGFR(L747-E749del, A750P) (Homo sapiens, UniProt P00533, A750P/DEL747-749); test: KinomeScan; format: binding; settings: read-out: % control
T33 construct: purchased DiscoveRx KINOMEscan

KIT(V559D,V654A) = molecular target: T34, KIT(V559D,V654A) (Homo sapiens, UniProt P10721, V559D/V654A); test: KinomeScan; format: binding; settings: read-out: % control
T34 construct: purchased DiscoveRx KINOMEscan

[5] = test system: EGFR Y1068 phosphorylation in BaF3-TEL-EGFR cells; test: EGFR Y1068 auto-phosphorylation in transformed BaF3 cells; settings: Mus musculus, BaF3, 4 h, read-out: EC50, phosphorylation of EGFR Y1068
[6] = rat, in vivo, po, P.O. (10mg/kg)

T3 sequence (P00533 25-1210 L858R): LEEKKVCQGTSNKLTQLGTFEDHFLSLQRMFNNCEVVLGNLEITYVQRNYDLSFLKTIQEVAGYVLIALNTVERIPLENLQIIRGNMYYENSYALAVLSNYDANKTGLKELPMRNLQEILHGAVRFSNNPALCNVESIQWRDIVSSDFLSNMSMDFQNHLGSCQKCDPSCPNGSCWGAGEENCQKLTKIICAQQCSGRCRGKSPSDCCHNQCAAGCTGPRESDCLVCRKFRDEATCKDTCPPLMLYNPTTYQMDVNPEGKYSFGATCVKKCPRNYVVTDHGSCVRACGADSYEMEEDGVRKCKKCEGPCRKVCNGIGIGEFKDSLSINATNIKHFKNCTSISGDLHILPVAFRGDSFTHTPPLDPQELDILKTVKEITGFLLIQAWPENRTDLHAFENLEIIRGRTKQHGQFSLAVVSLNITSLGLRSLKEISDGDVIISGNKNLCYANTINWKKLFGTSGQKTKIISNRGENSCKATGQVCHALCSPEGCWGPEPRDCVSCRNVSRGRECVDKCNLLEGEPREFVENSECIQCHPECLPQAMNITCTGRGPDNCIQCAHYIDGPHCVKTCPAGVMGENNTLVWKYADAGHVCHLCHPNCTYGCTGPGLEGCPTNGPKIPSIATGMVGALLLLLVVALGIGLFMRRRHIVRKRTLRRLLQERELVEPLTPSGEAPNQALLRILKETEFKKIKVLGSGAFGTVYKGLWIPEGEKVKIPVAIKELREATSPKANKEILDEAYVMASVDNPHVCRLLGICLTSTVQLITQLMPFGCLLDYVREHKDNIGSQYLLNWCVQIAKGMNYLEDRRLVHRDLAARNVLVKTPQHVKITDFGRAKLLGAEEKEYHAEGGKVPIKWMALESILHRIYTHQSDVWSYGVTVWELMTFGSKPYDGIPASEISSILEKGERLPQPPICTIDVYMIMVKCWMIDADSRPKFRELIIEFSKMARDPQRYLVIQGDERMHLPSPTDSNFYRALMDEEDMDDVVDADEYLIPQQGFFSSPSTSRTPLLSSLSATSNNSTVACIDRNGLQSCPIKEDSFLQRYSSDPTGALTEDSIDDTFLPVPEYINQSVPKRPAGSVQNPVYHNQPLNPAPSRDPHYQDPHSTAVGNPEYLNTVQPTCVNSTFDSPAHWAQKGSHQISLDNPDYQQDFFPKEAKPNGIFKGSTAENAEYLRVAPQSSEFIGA
T25 sequence (P62344 whole entry): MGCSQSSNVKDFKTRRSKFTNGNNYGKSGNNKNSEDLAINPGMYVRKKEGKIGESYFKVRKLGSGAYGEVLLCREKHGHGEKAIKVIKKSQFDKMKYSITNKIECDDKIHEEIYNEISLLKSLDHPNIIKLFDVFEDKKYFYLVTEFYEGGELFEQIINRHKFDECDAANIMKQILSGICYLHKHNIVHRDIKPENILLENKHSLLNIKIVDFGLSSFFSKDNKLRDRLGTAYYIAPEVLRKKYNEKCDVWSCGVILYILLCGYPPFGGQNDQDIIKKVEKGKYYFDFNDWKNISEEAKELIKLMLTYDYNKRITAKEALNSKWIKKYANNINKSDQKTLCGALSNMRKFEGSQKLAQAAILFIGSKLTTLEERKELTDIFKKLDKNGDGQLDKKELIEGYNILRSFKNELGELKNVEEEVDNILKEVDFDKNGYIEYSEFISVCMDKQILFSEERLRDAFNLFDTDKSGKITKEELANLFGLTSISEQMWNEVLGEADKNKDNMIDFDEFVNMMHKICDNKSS
T32 sequence (P11802 whole entry): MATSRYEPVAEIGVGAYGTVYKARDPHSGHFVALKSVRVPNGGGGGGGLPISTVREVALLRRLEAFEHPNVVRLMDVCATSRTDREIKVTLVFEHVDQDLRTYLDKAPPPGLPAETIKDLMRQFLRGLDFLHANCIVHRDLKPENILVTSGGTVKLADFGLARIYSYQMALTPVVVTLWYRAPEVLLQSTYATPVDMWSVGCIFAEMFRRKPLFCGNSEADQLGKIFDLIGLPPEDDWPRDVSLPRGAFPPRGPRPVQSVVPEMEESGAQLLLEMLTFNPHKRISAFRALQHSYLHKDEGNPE
T32 sequence (P24385 whole entry partner): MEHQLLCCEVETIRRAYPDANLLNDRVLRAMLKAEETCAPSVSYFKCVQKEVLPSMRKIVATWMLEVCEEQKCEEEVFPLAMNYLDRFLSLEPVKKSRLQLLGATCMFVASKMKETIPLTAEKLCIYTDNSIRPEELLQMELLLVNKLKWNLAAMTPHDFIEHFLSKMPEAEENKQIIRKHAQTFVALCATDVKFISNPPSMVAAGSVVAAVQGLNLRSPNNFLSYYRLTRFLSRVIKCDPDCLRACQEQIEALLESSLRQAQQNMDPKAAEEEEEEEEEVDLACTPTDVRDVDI
T6 sequence (P28482 whole entry): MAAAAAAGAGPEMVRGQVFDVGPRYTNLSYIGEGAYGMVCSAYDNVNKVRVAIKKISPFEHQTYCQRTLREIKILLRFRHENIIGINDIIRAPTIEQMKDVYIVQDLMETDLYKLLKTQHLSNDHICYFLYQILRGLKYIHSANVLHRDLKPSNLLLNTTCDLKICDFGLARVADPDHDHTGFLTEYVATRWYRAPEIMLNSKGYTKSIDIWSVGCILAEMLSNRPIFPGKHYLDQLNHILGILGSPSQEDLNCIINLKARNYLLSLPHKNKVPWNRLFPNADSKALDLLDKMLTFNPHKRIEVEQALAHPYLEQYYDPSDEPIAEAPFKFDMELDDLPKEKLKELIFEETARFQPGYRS
T15 sequence (P29376 17-864): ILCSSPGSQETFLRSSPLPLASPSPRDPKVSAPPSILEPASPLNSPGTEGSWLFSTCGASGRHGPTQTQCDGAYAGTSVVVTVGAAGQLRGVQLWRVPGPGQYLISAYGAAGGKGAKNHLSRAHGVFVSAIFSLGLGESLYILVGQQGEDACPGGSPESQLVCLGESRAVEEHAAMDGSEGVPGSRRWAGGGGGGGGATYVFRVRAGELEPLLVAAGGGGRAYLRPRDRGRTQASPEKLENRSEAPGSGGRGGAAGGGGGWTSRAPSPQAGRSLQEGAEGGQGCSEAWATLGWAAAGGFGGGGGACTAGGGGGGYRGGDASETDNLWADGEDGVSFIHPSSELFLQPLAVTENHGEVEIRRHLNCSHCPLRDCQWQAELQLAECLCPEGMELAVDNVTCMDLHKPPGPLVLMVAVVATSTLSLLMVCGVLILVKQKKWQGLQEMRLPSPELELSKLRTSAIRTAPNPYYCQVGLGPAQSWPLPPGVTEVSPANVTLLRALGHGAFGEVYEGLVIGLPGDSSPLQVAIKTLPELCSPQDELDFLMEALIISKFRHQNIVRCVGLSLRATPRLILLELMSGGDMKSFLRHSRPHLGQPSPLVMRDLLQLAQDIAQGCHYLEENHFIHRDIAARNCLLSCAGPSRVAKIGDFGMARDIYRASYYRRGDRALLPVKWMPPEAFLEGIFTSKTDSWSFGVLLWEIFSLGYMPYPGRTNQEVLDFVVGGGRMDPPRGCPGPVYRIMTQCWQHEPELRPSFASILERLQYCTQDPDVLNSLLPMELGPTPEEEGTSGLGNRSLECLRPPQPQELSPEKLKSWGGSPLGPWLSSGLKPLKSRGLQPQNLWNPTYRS
T11 sequence (Q9H0K1 whole entry): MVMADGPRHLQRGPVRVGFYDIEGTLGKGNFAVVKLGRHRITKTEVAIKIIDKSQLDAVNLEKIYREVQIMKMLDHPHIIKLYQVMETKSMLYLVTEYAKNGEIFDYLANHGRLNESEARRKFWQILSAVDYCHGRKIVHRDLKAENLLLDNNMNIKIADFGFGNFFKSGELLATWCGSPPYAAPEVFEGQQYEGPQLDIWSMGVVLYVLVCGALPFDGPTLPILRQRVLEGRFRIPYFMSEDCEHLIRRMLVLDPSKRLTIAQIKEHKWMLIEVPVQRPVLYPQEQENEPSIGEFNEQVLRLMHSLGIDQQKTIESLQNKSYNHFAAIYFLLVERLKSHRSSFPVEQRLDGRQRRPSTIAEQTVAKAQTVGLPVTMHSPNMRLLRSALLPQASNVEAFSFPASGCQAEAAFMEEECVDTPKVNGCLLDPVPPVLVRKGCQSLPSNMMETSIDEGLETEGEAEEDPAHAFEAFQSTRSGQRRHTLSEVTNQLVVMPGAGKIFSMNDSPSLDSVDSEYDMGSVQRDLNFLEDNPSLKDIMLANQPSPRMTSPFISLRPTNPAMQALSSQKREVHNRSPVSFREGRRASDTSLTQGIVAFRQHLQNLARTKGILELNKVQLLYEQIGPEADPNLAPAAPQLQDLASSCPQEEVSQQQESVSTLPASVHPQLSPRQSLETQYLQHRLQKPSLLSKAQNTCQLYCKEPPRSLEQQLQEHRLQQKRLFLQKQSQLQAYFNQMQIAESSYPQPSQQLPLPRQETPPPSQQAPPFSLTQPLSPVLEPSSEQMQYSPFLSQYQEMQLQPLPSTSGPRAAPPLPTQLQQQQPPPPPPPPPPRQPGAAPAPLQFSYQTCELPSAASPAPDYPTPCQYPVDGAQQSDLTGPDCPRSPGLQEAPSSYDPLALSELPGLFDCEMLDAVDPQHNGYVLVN
T24 sequence (Q15835 whole entry): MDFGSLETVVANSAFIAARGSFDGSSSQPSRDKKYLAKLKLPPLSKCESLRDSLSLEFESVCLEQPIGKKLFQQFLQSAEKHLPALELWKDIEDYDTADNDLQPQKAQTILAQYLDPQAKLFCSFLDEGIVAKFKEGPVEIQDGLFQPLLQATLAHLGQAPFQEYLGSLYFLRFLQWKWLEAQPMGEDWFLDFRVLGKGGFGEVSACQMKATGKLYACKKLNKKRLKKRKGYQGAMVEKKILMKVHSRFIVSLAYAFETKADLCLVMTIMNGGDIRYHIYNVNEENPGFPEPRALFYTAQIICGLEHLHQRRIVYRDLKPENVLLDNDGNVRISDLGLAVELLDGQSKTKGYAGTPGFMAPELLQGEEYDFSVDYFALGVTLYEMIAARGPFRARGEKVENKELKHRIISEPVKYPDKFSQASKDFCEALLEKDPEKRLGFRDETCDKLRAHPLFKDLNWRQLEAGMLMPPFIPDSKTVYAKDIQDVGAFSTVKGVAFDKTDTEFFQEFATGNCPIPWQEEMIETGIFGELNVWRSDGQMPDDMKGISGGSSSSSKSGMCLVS

In the case of `C=CC(=O)N1CCC[C@@H](n2nc(-c3ccc(OCc4cccc(C)n4)c(Cl)c3)c3c(N)ncnc32)C1` [CHMFL-EGFR-26], the remaining binding at 1 µM (OSR1) is reported as 95%, the remaining binding at 1 µM (SBK1) is reported as 100% and the remaining binding at 1 µM (EGFR(L858R)) is reported as 2.5%. It also gave a CLz ([1]; P.O. (10mg/kg)) of 2.53 ± 0.45 L/h/kg, a Vz ([1]; P.O. (10mg/kg)) of 2.62 ± 0.14 L/kg and a T1/2 ([1]; P.O. (10mg/kg), 10 mg/kg) of 48 min. For the same compound, the half-life ([1]; rat, in vivo, iv, 1 mg/kg, I.V (1mg/kg)) was 18.6 ± 4.92 min, the AUC(0-inf) ([1]; rat, in vivo, iv, I.V (1mg/kg)) was 1.19 ± 0.143 µg·h/mL and the AUC(0-t) ([1]; rat, in vivo, iv, I.V (1mg/kg)) was 1.19 ± 0.142 µg·h/mL. For the same compound, the Cmax ([1]; rat, in vivo, iv, I.V (1mg/kg)) was 10.6 ± 1.65 µg/mL, the Tmax ([1]; rat, in vivo, iv, I.V (1mg/kg)) was 1.02 min and the clearance ([1]; rat, in vivo, iv, I.V (1mg/kg), read-out: CLz (converted)) was 0.85 L/h/kg. It also gave an MRT last ([1]; rat, in vivo, iv, I.V (1mg/kg)) of 10.8 ± 2.1 min, a Vd ([1]; rat, in vivo, iv, I.V (1mg/kg), read-out: Vz) of 0.38 ± 0.13 L/kg and a half-life ([1]; rat, in vivo, po, 10 mg/kg, P.O. (10mg/kg)) of 44.4 ± 9 min. For the same compound, the AUC(0-inf) [1, 6] was 4.04 ± 0.717 µg·h/mL, the AUC(0-t) [1, 6] was 4.04 ± 0.716 µg·h/mL and the Cmax [1, 6] was 5.21 ± 0.859 µg/mL. The Tmax [1, 6] was 19.8 ± 8.4 min, the bioavailability ([1]; rat, in vivo, po, P.O. (10mg/kg), read-out: F% (bioavailability)) was 33.8% and the MRT last [1, 6] was 43.2 ± 4.14 min. The remaining binding at 1 µM (BRSK2) was 97%, the remaining binding at 1 µM (TIE1) was 69% and the remaining binding at 1 µM (ERK2) was 94%. The remaining binding at 1 µM (PIK3CA(Q546K)) was 83%, the remaining binding at 1 µM (MAP4K5) was 54% and the remaining binding at 1 µM (DAPK3) was 98%. The remaining binding at 1 µM [2] was 95%, the remaining binding at 1 µM (SIK2) was 93% and the remaining binding at 1 µM (CAMK4) was 100%. It also gave a remaining binding at 1 µM (MEK6) of 95%, a remaining binding at 1 µM (NEK1) of 92% and a remaining binding at 1 µM (LTK) of 94%. It also gave a remaining binding at 1 µM (KIT(A829P)) of 100%, a remaining binding at 1 µM (ERK3) of 100% and a remaining binding at 1 µM (RIOK3) of 82%. For the same compound, the remaining binding at 1 µM (CIT) was 90%, the remaining binding at 1 µM (MTOR) was 100% and the remaining binding at 1 µM [3] was 100%. It also gave a remaining binding at 1 µM (WNK1) of 100%, a remaining binding at 1 µM (MLK1) of 99% and a remaining binding at 1 µM (GRK1) of 88%. It also gave a remaining binding at 1 µM (PFCDPK1(P.falciparum)) of 54%, a remaining binding at 1 µM (ICK) of 90% and a remaining binding at 1 µM (MAP4K3) of 97%. For the same compound, the remaining binding at 1 µM (NEK9) was 94%, the remaining binding at 1 µM (TAOK3) was 100% and the remaining binding at 1 µM (MAP3K4) was 86%. It also gave a remaining binding at 1 µM (FYN) of 90%, a remaining binding at 1 µM (CDK4-cyclinD1) of 100% and a remaining binding at 1 µM [4] of 10%. For the same compound, the remaining binding at 1 µM (KIT(V559D,V654A)) was 89% and the EC50 [5] was 0.05 µM.
